Patent US8119112B2, “Ophthalmic compositions with an amphoteric surfactant and hyaluronic acid” (Bausch & Lomb Incorporated, priority 2008, dated 2012)

Test: Precipitate formation of polyquaternium-1 with hyaluronic acid
Type: physicochemical
Description: One of the more common quaternary ammonium compounds is α-[4-tris(2-hydroxyethyl)-ammonium chloride-2-butenyl]poly[1-dimethyl ammonium chloride-2-butenyl]-ω-tris(2-hydroxyethyl) ammonium chloride, also referred to in the art as polyquaternium-1. Quaternary ammonium compounds are generally referred to in the art as “polyquaternium” disinfectants, and are identified by a particular number following the designation such as polyquaternium-1, polyquaternium-10 or polyquaternium-42. Polyquaternium-1 is present in the ophthalmic compositions from 0.5 ppm to 3 ppm. […] The precipitate is believed to be the complexation product of hyaluronic acid and polyquaternium-1.

α-[4-tris(2-hydroxyethyl)-ammonium chloride-2-butenyl]poly[1-dimethyl ammonium chloride-2-butenyl]-ω-tris(2-hydroxyethyl) ammonium chloride [polyquaternium-1]
concentration of polyquaternium-1 in the compositions that results in formation of a precipitate: > 3 ppm
